Values belong to the molecule of their own block, whether it stands above or below them.
Key:
Sirt3 [1] = target: T1, Sirt3 (Homo sapiens, UniProt Q9NTG7); experiment: Coupled enzymatic deacetylation assay, Sirt3 with ACS2-acK642 peptide; assay type: biochemical; conditions: for Effect on Sirt3 activity (in words): coupled assay, ACS2 peptide, 10 and 100 μM compound
T1 sequence (Q9NTG7 114-380): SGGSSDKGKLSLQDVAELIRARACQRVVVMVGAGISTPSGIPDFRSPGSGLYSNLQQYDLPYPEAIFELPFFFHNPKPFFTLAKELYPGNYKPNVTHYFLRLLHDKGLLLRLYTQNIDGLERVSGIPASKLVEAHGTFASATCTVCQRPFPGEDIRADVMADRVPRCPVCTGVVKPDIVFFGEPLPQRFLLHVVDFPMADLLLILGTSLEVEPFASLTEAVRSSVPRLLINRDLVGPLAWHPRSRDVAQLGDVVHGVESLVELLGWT

Sirt1-3 = conditions: FdL substrate; cited from earlier work
Sirt1 = target: T2, Sirt1 (Homo sapiens, UniProt Q96EB6); experiment: Coupled enzymatic deacetylation assay, Sirt1 with p53-acK381 peptide; assay type: biochemical; conditions: 10 and 100 μM compound
T2 sequence (Q96EB6 1-747): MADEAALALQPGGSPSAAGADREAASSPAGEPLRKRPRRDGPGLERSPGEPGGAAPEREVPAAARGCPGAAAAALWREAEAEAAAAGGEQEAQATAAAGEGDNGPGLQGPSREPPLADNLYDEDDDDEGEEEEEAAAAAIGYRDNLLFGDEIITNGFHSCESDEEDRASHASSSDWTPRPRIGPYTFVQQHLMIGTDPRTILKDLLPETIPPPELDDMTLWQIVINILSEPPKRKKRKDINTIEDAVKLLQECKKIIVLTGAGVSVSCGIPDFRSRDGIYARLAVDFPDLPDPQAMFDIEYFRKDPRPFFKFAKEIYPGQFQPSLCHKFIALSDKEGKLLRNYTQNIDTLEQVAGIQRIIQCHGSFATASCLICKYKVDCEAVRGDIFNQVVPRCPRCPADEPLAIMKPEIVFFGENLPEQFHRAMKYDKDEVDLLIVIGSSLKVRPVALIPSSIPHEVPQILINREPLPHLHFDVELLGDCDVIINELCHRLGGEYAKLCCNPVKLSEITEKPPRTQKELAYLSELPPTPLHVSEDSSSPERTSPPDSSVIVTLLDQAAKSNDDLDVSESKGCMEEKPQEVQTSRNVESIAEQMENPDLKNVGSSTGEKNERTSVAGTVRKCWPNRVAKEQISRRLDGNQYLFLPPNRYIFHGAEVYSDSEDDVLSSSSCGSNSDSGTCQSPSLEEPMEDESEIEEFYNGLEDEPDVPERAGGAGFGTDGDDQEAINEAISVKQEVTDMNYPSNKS

Sirt4 = target: T3, Sirt4 (Homo sapiens, UniProt Q9Y6E7); experiment: Sirt4 activity test; assay type: biochemical; conditions: 100 μM compound
T3 sequence (Q9Y6E7 29-314): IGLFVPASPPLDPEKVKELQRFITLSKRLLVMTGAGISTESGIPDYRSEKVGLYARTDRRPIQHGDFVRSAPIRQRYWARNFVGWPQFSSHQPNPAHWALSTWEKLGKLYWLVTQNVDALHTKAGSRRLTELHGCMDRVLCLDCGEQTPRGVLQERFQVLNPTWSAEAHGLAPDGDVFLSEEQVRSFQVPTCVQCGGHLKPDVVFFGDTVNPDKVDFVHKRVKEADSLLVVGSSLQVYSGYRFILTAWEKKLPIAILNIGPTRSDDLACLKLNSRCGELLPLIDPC

glutaminase (GLS) = experiment: GLS activity assay in MDA-MB-231 cell lysates; assay type: cell-based, human; conditions: MDA-MB-231 cells, 50 μM, 4 and 24 h
Sirt6 = Sirt6 (Homo sapiens, UniProt Q8N6T7); experiment: Sirt6 activity test; assay type: biochemical; conditions: 100 μM compound
Sequence of Sirt6 (Q8N6T7 whole entry): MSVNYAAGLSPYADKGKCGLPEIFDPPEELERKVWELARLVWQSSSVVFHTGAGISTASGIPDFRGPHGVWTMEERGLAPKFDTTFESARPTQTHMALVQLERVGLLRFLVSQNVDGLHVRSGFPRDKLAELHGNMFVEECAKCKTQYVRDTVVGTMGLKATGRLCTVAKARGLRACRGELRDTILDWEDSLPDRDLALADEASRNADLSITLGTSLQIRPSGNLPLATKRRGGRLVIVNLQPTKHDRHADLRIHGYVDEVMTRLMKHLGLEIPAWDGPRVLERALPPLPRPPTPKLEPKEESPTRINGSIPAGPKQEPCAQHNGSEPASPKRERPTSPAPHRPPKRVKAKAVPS

MDA-MB-231 cells = experiment: Ammonia level assay, MDA-MB-231 cells; assay type: cell-based, human; conditions: 50 μM, 4 and 24 h
Sirt3 [2] = target: T1, Sirt3; experiment: Microscale thermophoresis binding to Sirt3
Sirt2 = target: T4, Sirt2 (Homo sapiens, UniProt Q8IXJ6); experiment: Coupled enzymatic deacetylation assay, Sirt2 with α-tubulin-acK25 peptide; assay type: biochemical; conditions: coupled assay, 10 and 100 μM compound
T4 sequence (Q8IXJ6 43-356): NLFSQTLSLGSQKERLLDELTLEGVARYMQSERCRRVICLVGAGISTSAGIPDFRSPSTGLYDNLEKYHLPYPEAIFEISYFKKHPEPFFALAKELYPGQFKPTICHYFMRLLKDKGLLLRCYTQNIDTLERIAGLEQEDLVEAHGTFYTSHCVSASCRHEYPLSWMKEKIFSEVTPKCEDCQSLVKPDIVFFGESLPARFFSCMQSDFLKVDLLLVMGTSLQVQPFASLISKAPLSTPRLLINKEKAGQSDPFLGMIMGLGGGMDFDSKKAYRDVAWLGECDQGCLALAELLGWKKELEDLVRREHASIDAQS

Sirt5 [3] = target: T5, Sirt5 (Homo sapiens, UniProt Q9NXA8); experiment: MS-based desuccinylation assay, Sirt5 with CPS1-succK537; assay type: biochemical; conditions: 100 μM compound
T5 sequence (Q9NXA8 34-302): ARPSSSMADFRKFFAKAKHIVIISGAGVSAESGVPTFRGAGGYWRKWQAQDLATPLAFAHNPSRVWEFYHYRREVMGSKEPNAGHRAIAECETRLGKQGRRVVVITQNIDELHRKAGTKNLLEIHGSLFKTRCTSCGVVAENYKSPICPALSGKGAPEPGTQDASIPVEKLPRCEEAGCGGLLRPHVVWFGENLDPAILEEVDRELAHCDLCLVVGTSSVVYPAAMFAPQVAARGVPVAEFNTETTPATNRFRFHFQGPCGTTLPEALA

Sirt5 [4] = target: T6, Sirt5 (Homo sapiens, UniProt Q9NXA8); experiment: PDC deacylation assay: PDHA1 desuccinylation by recombinant Sirt5; assay type: biochemical; conditions: 100 μM compound, PDHA1 from porcine heart tissue
T6 sequence (Q9NXA8 37-310): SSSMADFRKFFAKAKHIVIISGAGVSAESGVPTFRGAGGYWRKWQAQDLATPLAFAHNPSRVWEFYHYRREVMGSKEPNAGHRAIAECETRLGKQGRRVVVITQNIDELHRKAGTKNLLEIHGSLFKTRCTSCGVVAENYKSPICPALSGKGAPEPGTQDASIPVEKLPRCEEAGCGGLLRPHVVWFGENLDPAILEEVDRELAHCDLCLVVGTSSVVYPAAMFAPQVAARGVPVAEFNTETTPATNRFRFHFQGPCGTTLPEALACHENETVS

GOT1 acetylation = GOT1 acetylation Western blot in pancreatic cancer cell lines; assay type: cell-based
Sirt5 [5] = target: T5, Sirt5; experiment: Coupled enzymatic desuccinylation assay, Sirt5 with CPS1-succK537 peptide; assay type: biochemical
Sirt5 [6] = target: T5, Sirt5; experiment: NAD+ titration kinetics of Sirt5; assay type: biochemical; conditions: in presence of 200 μM compound (without compound 1.6 ± 0.1)
GDH = GDH activity assay in MDA-MB-231 cell lysates; assay type: cell-based, human; conditions: wild-type MDA-MB-231 cells, 50 μM, 4 or 24 h
Sirt3 [7] = target: T7, Sirt3 (Homo sapiens, UniProt Q9NTG7); experiment: Cellular SIRT3 deacetylase activity assay; assay type: cell-based; conditions: MDA-MB-231 cells, 50 and 100 μM, 3 h
T7 sequence (Q9NTG7 1-399): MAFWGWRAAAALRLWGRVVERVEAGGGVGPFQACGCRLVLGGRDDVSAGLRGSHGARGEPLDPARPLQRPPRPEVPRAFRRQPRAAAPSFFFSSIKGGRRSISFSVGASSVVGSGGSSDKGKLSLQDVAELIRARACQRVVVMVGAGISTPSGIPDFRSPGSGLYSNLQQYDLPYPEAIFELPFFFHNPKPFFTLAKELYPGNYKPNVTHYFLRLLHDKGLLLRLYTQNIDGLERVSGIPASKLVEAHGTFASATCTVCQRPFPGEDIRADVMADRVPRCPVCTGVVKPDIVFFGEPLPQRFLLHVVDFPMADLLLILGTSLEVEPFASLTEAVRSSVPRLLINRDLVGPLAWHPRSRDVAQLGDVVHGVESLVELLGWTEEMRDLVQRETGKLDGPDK

Sirt3 [8] = target: T1, Sirt3; experiment: MS-based deacetylation assay, Sirt3 with ACS2 peptide; assay type: biochemical; conditions: 100 μM compound
Sirt3 [9] = target: T1, Sirt3; experiment: Sirt3-dependent deacetylation of a panel of eleven acetylated peptides; assay type: biochemical
Sirt5 [10] = target: T5, Sirt5; experiment: Microscale thermophoresis binding to Sirt5
GDH acetylation = experiment: GDH immunoprecipitation and Lys acetylation Western blot, MDA-MB-231 cells; assay type: cell-based, human; conditions: 50 μM
Sirt3 [11] = conditions: cited from earlier work

Effect on Sirt3 activity (in words) (Sirt3 [1]): Sirt3 activation
SMILES: CCOC(=O)C1=CN(Cc2ccccc2)C=C(C(=O)OCC)C1c1ccccc1 [Compound 1]
Sirt1-3 activation in the FdL assay (Sirt1-3): Sirt1-3 activating properties

Effect on Sirt1 activity (in words) (Sirt1): no significant effects
Effect on Sirt4 (Sirt4): weak, partial inhibition
Effect on Sirt3 activity (in words) (Sirt3 [1]): no significant effects
Effect on Sirt6 (Sirt6): weak, partial inhibition
Kd (Sirt3 [2]): 138 ± 37 µM
Effect on Sirt2 activity (in words) (Sirt2): no significant effects
Sirt5-dependent desuccinylation of PDHA1 (Sirt5 [4]): clearly enhanced
EC50 (Sirt5 [5]): ~40 µM
Sirt5 activation (CPS1-succK537 desuccinylation) (Sirt5 [5]; 100 μM compound): 3- to 3.5 fold
Maximum activation of Sirt5 (Sirt5 [5]; titration, beyond 200 μM compound concentration): 5 fold
NAD+ kinetics vmax of Sirt5 (Sirt5 [6]): 2.3 ± 0.1 nmol/mg/min
SMILES: CCOC(=O)C1=CN(C(=O)c2ccccc2)C=C(C(=O)OCC)C1c1ccsc1 [Compound 30, Diethyl 1-Benzoyl-4-(thiophen-3-yl)-1,4-dihydropyridine-3,5-dicarboxylate]
GLS activity in cell lysates (glutaminase (GLS)): decreased GLS activity
Ammonia accumulation (MDA-MB-231 cells): blocked ammonia accumulation
Sirt5 activation in MS-based assay (Sirt5 [3]): confirmed the activation of Sirt5-dependent desuccinylation
GOT1 acetylation (GOT1 acetylation; S2–013 and Capan1 cell lines, 20 μM, 24 h): decrease GOT1 acetylation
Effect on GOT1 acetylation (GOT1 acetylation; SIRT5 knockout KPC and KPCS cell lines): negligible
GDH activity in cell lysates (GDH): decreased GDH activity

SMILES: CCOC(=O)C1=CN(C(=O)c2cc(OC)c(OC)c(OC)c2)C=C(C(=O)OCC)C1c1ccccc1 [Compound 31, Diethyl 4-Phenyl-1-(3,4,5-trimethoxybenzoyl)-1,4-dihydropyridine-3,5-dicarboxylate]
Effect on Sirt1 activity (in words) (Sirt1): no significant effects
Effect on Sirt4 (Sirt4): partial Sirt4 inhibition
Sirt3 activity (Sirt3 [1]; 100 μM compound): more than 400%
Effect on Sirt6 (Sirt6): no significant effects
Kd (Sirt3 [2]): 32 ± 7 µM
FdL deacetylation (Sirt3) activity in cell lysates (Sirt3 [7]): significant increase in FdL deacetylation activity
Effect on Sirt2 activity (in words) (Sirt2): no significant effects
Sirt3 activation in MS-based assay (Sirt3 [8]): activated Sirt3-dependent deacetylation of the ACS2 peptide
Stimulation of Sirt3-dependent deacetylation of all panel substrates (Sirt3 [9]; 10 μM compound): weakly
Stimulation of Sirt3-dependent deacetylation of all panel substrates (Sirt3 [9]; 100 μM compound): significantly
Kd (Sirt5 [10]): 83 ± 19 µM
Effect on Sirt5 activity (in words) (Sirt5 [5]; coupled assay, 10 and 100 μM compound): no significant effects
GDH overall Lys acetylation (GDH acetylation): decreased acetylation levels

SMILES: C=CCc1ccc(O)c(-c2ccc(O)c(CC=C)c2)c1 [honokiol]
Sirt3 activation (Sirt3 [11]): weakly activate Sirt3

Source: paper PMC9653166 (Journal of medicinal chemistry, 2022)
